Measurements taken from PMC5052702 (Nature Communications, 2016).
Where “and” joins values, the source holds several entries; their conditions need not be identical. Equal entries are not always repeated. Where two headings read alike, the source gives them in different places.

Target: T1, CVB3 3C protease (Coxsackievirus B3, UniProt P03313)
T1 construct: 3C protease of Coxsackie virus B3 consisting of 183 amino-acid residues; made in house; host or cells: E. coli BL21(DE3), plasmid pET-23a(+)
Assay: FRET-based enzyme activity assay (warhead activation / inhibitor kinetics)
Assay type: biochemical, Coxsackie virus B3
Conditions: for kinact/KI: relative inactivation rate, slope of kobs against inhibitor concentration
Protocol: The activity of the protease was measured by hydrolysis of the FRET-substrate N-Dabcyl-KTLEALFQ↓GPPVYE(Edans)-NH2. The peptide was purchased from Biosyntan (Berlin, Germany). Samples were irradiated with light with a wavelength of 355 nm and the emitted light at 538 nm was measured in relative fluorescence units (RFUs). An amount of 100 pmol of cleaved substrate equals 5,000 RFU.
Assay samples contained 10 μl of a 100 mM HEPES-NaOH buffer solution pH 7.5/1 mM EDTA, 10 μl enzyme solution (2 μM CVB3 3C^Pro), 10 μl of 10 μM substrate solution (both dissolved in the above buffer) and 1 μl Inhibitor and/or fragment dissolved in DMSO. For assay results of a dilution series of a mixture of 1 and 2 and comparison of reaction products in dependence of the assay solvent, see Supplementary Figs 1 and 2.
The screening procedure consisted of the following steps: 10 μl 100 mM HEPES-NaOH buffer solution pH 7.5/1 mM EDTA was placed in a cavity of the 384-well plate (polystyrene, Corning 3544). Then 10 μl of enzyme solution (40 μM CVB3 3C protease in 100 mM HEPES-NaOH buffer solution, pH 7.5/1 mM EDTA) was added and the plate was shaken for 2 min at 1,400 r.p.m. Afterwards, 0.5 μl of a DMSO solution of the electrophilic probe and 0.5 μl of a DMSO solution of the nucleophile was added, followed by 10 μl of substrate solution (10 μM in 100 mM HEPES-NaOH buffer solution, pH 7.5/1 mM EDTA). The plate was shaken again for 2 min at 1,400 r.p.m. and the generated fluorescence signal was measured with a Safire II Fluorimeter from Tecan. The electrophilic probe 1 was used at a concentration of 400 μM for the screening, which lowered the protease activity by 10–20%. Eight-hundred fifty primary amines were tested at a concentration of 320 μM and fragment 2 amplified the inhibitory activity of 1 most potently. Positive control samples contained only DMSO instead of the probe or the nucleophile. Negative control samples contained no active enzyme. An interfering fluorescent effect has not been observed.
When determining the inhibitory parameters of an inhibitor, the assay set-up was as mentioned but 1 μl DMSO solution of inhibitor was used instead of probe or nucleophile. Different concentrations of inhibitor were tested at least as duplicates and the pseudo-first-order association kinetics (kobs) were determined using GraphPad Prism. The slope of a plot of the different kobs values against the inhibitor concentration yielded kinact/KI.

T1 sequence (P03313 1541-1723): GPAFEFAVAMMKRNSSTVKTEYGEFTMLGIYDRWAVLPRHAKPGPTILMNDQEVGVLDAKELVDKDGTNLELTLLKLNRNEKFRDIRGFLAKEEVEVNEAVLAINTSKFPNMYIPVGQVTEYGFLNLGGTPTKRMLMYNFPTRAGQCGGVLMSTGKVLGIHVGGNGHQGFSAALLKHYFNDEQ

With `Nc1cc(=O)[nH]n1C1CCCCCC1` [Compound 2, 5-amino-1-cycloheptyl-1,2-dihydropyrazol-3-one] the “inhibition of the protease, in words” value was “virtually inactive” and the “reduction of the enzyme's activity (inhibition)” value (fragments alone or combined at the same concentrations, ligation assay) was “no more than 10%”.

Work on `CCOC(=O)[C@H]1O[C@@H]1Cc1c(N)n(C2CCCCCC2)[nH]c1=O` [Compound 3] yielded a kinact/KI (read-out: kinact/KI) of 3.7 ± 0.2 M⁻¹ s⁻¹.

In the case of `CCOC(=O)[C@H]1O[C@@H]1C(=O)Nc1cc(=O)[nH]n1C1CCCCCC1` [Compound 4], the “inhibition of the protease, in words” value is reported as “reversible inhibitor” and the IC50 (read-out: IC50) is reported as 142 ± 5.6 µM.

`CCOC(=O)[C@H]1O[C@H]1C(=O)Nc1cc(=O)[nH]n1C1CCCCCC1` [Compound 5] was tested, and the “inhibition of the protease, in words” value was “inactive”.

For `O=C(NCc1cccc2ccccc12)[C@H]1O[C@@H]1C(=O)Nc1cc(=O)[nH]n1C1CCCCCC1` [Compound 6], the “inhibition of the protease, in words” value was “inactive”.

In the case of `CCOC(=O)/C=C/Cc1c(N)n(C2CCCCCC2)[nH]c1=O` [Compound 7], the kinact/KI is reported as 0.4 M⁻¹ s⁻¹ and 0.42 ± 0.01 M⁻¹ s⁻¹.

In the case of `CCOC(=O)/C=C/C(=O)c1c(N)n(C2CCCCCC2)[nH]c1=O` [Compound 8], the kinact/KI is reported as 132 M⁻¹ s⁻¹ and 131.7 ± 4.2 M⁻¹ s⁻¹.

In the case of `CCOC(=O)/C=C/C(=O)Nc1cc(=O)[nH]n1C1CCCCCC1` [Compound 9], the “inhibition of the protease, in words” value is reported as “inactive”.

Compound `CCOC(=O)/C=C/C(=O)c1c(N)n(-c2ccccc2)[nH]c1=O` [Compound 10] has a kinact/KI (read-out: kinact/KI) of 14.7 ± 0.9 M⁻¹ s⁻¹.
